Measurements taken from PubChem BioAssay AID248 (DTP/NCI, 2004).
Values joined by “and” are separate entries in the source; they are usually repeats but may differ in a detail not shown here. Equal values may be shown once. Toxic doses and inconclusive results are not listed. No stated cut-off is given here; in the data, active means T/C of 150% or more; inactive means T/C below 125%.

Tested on: L1210 leukemia ip in BDF1 mice, survival T/C
Assay: NCI In Vivo Anticancer Drug Screen. Data for tumor model L1210 Leukemia (intraperitoneal) in B6D2F1 (BDF1) mice
Conditions: endpoint: mean survival time, higher = longer survival
How it was run: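 Value reflects the ratio of survival in compound-treated mice to survival in vehicle-treated controls, with both groups carrying the same transplanted tumor.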

[1] = dose: 100.0 mg/kg/injection, schedule: Q04DX003 (ip), vehicle: Klucel (hydroxypropylcellulose) (HPC)
[2] = dose: 200.0 mg/kg/injection, schedule: Q04DX003 (ip), vehicle: Klucel (hydroxypropylcellulose) (HPC)
[3] = dose: 400.0 mg/kg/injection, schedule: Q04DX003 (ip), vehicle: Klucel (hydroxypropylcellulose) (HPC)
[4] = dose: 100.0 mg/kg/injection, schedule: Q01DX009 (ip), vehicle: Klucel (hydroxypropylcellulose) (HPC)
[5] = dose: 100.0 mg/kg/injection, schedule: Q01DX009 (ip), vehicle: saline with Tween-80
[6] = dose: 200.0 mg/kg/injection, schedule: Q01DX009 (ip), vehicle: Klucel (hydroxypropylcellulose) (HPC)
[7] = dose: 200.0 mg/kg/injection, schedule: Q01DX009 (ip), vehicle: saline with Tween-80
[8] = dose: 400.0 mg/kg/injection, schedule: Q01DX009 (ip), vehicle: Klucel (hydroxypropylcellulose) (HPC)
[9] = dose: 50.0 mg/kg/injection, schedule: Q01DX009 (ip), vehicle: saline sonified
[10] = dose: 100.0 mg/kg/injection, schedule: Q04DX002 (ip), vehicle: Klucel (hydroxypropylcellulose) (HPC)
[11] = dose: 200.0 mg/kg/injection, schedule: Q04DX002 (ip), vehicle: Klucel (hydroxypropylcellulose) (HPC)
[12] = dose: 400.0 mg/kg/injection, schedule: Q04DX002 (ip), vehicle: Klucel (hydroxypropylcellulose) (HPC)

Measured: T/C

OC1C=C(Br)C2CCC1CC2 (centres undefined)
inactive: dose: 100.0 mg/kg/injection, schedule: Q01DX009 (ip), vehicle: other 113 % of control | dose: 100.0 mg/kg/injection, schedule: Q04DX003 (ip), vehicle: other 96 % of control | dose: 200.0 mg/kg/injection, schedule: Q01DX009 (ip), vehicle: other 100 % of control | dose: 200.0 mg/kg/injection, schedule: Q04DX003 (ip), vehicle: other 107 % of control | dose: 400.0 mg/kg/injection, schedule: Q01DX009 (ip), vehicle: other 92 % of control | dose: 400.0 mg/kg/injection, schedule: Q04DX003 (ip), vehicle: other 100 % of control

O=C(Nc1ccccc1)OC1CCCC1
inactive: [1] 101 % of control | [2] 101 % of control | [3] 96 % of control

Cc1ccc(C(=O)C(Br)C(Br)c2ccccc2)cc1 (centres undefined)
inactive: [4] 89 % of control | [5] 90 % of control | dose: 100.0 mg/kg/injection, schedule: Q04DX003 (ip), vehicle: saline with Tween-80 92 % of control | [6] 89 % of control | [7] 89 % of control | dose: 200.0 mg/kg/injection, schedule: Q04DX003 (ip), vehicle: saline with Tween-80 89 % of control | [8] 96 % of control | dose: 400.0 mg/kg/injection, schedule: Q04DX003 (ip), vehicle: saline with Tween-80 95 % of control

O=C(CC1CCCCN1)CC1CCCCN1 (centres undefined)
inactive: dose: 100.0 mg/kg/injection, schedule: Q04DX003 (ip), vehicle: saline 92 % of control | dose: 200.0 mg/kg/injection, schedule: Q04DX003 (ip), vehicle: saline 101 % of control

Cc1cc(Oc2ccc(Cl)cc2NC(=O)Nc2cccc(C(F)(F)F)c2)cc(S(=O)(=O)O)c1Cl
inactive: dose: 25.0 mg/kg/injection, schedule: Q01DX009 (ip), vehicle: saline sonified 101 % of control | [9] 98 % of control | dose: 100.0 mg/kg/injection, schedule: Q01DX009 (ip), vehicle: saline sonified 90 % of control

CS(=O)(=O)OCCN(CCOS(C)(=O)=O)c1ccc(C=Nc2ccc(-c3csc(-c4ccc(Br)cc4)n3)cc2)c(Cl)c1
inactive: dose: 50.0 mg/kg/injection, schedule: Q04DX003 (ip), vehicle: Klucel (hydroxypropylcellulose) (HPC) 107 % of control | [1] 112 % of control and 115 % of control | [2] 114 % of control and 118 % of control | [3] 123 % of control

Cc1nc(N)nc(Cl)c1CCCc1ccccc1
inactive: dose: 100.0 mg/kg/injection, schedule: Q01DX001 (ip), vehicle: Klucel (hydroxypropylcellulose) (HPC) 97 % of control | dose: 200.0 mg/kg/injection, schedule: Q01DX001 (ip), vehicle: Klucel (hydroxypropylcellulose) (HPC) 102 % of control | dose: 400.0 mg/kg/injection, schedule: Q01DX001 (ip), vehicle: Klucel (hydroxypropylcellulose) (HPC) 107 % of control

COC(=O)c1ccc(SC(=O)N(C)C)cc1
inactive: [1] 91 % of control | [2] 96 % of control | [3] 91 % of control

O=C(COc1c(Cl)cc(Cl)cc1Cl)NCc1ccc(Cl)cc1
inactive: [5] 100 % of control | [7] 109 % of control | dose: 400.0 mg/kg/injection, schedule: Q01DX009 (ip), vehicle: saline with Tween-80 101 % of control

C=C(C)C1C2OC(=O)C1C1(O)CC3OC34C(=O)OC2C14C (centres undefined)
inactive: dose: 1.25 mg/kg/injection, schedule: Q01DX001 (ip), vehicle: other 109 % of control | dose: 2.5 mg/kg/injection, schedule: Q01DX001 (ip), vehicle: other 101 % of control

[Cl][Hg][c]1ccccc1N=Nc1ccccc1
inactive: dose: 3.0 mg/kg/injection, schedule: Q01DX009 (ip), vehicle: saline with Tween-80 90 % of control | dose: 6.0 mg/kg/injection, schedule: Q01DX009 (ip), vehicle: saline with Tween-80 101 % of control | dose: 12.0 mg/kg/injection, schedule: Q01DX009 (ip), vehicle: saline with Tween-80 98 % of control | dose: 12.5 mg/kg/injection, schedule: Q01DX009 (ip), vehicle: saline with Tween-80 100 % of control

CC1CCC2(O)C3(C)CC(=O)OC2(C1O)C1(O)C(C)C(O)(C(C)C)C(O)C31O (centres undefined)
inactive: dose: 5.0 mg/kg/injection, schedule: Q01DX001 (ip), vehicle: saline 101 % of control

COc1cc(C(=O)Nc2cc(C(F)(F)F)ccc2Cl)cc(OC)c1OC
inactive: [4] 106 % of control | [6] 100 % of control | [8] 97 % of control

O=C(NC(=S)Nc1ccccc1C(=O)O)c1ccccc1
inactive: [9] 96 % of control | dose: 100.0 mg/kg/injection, schedule: Q04DX003 (ip), vehicle: saline sonified 95 % of control | dose: 200.0 mg/kg/injection, schedule: Q01DX009 (ip), vehicle: saline sonified 94 % of control | dose: 200.0 mg/kg/injection, schedule: Q04DX003 (ip), vehicle: saline sonified 95 % of control

Cc1ccc(C(C)O)cc1 (centres undefined)
inactive: [10] 98 % of control | [11] 98 % of control | [12] 98 % of control

O=C(N/N=C/c1ccc(Cl)cc1)Nc1ccccc1
inactive: [4] 90 % of control | [6] 96 % of control

CC1C(=O)CC(c2ccccc2)N(C)C1c1ccccc1 (centres undefined)
inactive: dose: 75.0 mg/kg/injection, schedule: Q01DX001 (ip), vehicle: saline 96 % of control | dose: 75.0 mg/kg/injection, schedule: Q04DX003 (ip), vehicle: acetone 93 % of control | dose: 150.0 mg/kg/injection, schedule: Q01DX001 (ip), vehicle: saline 91 % of control | dose: 150.0 mg/kg/injection, schedule: Q04DX003 (ip), vehicle: acetone 98 % of control | dose: 300.0 mg/kg/injection, schedule: Q01DX001 (ip), vehicle: saline 100 % of control | dose: 300.0 mg/kg/injection, schedule: Q04DX003 (ip), vehicle: acetone 96 % of control

[O-][n+]1c(Cl)cccc1Cl
inactive: dose: 15.0 mg/kg/injection, schedule: Q01DX001 (ip), vehicle: carboxymethylcellulose (CMC) 103 % of control | dose: 30.0 mg/kg/injection, schedule: Q01DX001 (ip), vehicle: carboxymethylcellulose (CMC) 112 % of control | dose: 60.0 mg/kg/injection, schedule: Q01DX001 (ip), vehicle: carboxymethylcellulose (CMC) 105 % of control

COc1cc(Nc2ccc(Oc3ccc(O)c(CN)c3)cc2)c2ncccc2c1
inactive: dose: 75.0 mg/kg/injection, schedule: Q01DX001 (ip), vehicle: other 103 % of control | dose: 150.0 mg/kg/injection, schedule: Q01DX001 (ip), vehicle: other 97 % of control | dose: 300.0 mg/kg/injection, schedule: Q01DX001 (ip), vehicle: other 100 % of control

Nc1ccc(Nc2ccncc2)cc1
inactive: dose: 50.0 mg/kg/injection, schedule: Q01DX009 (ip), vehicle: Klucel (hydroxypropylcellulose) (HPC) 98 % of control | [4] 97 % of control | [1] 93 % of control | [6] 98 % of control | [2] 95 % of control

O=C(NC1CCCCC1)C(=O)NC1CCCCC1
inactive: dose: 50.0 mg/kg/injection, schedule: Q01DX001 (ip), vehicle: saline 102 % of control | dose: 100.0 mg/kg/injection, schedule: Q01DX001 (ip), vehicle: saline 98 % of control | [10] 89 % of control | dose: 200.0 mg/kg/injection, schedule: Q01DX001 (ip), vehicle: saline 98 % of control | [11] 95 % of control | dose: 400.0 mg/kg/injection, schedule: Q01DX001 (ip), vehicle: saline 96 % of control | [12] 103 % of control

Cc1c2oc3c(C)ccc(C(=O)NCCC(C)C)c3nc-2c(C(=O)NCCC(C)C)c(N)c1=O
inactive: dose: 10.0 mg/kg/injection, schedule: Q01DX001 (ip), vehicle: carboxymethylcellulose (CMC) 93 % of control
